According to ChEMBL document CHEMBL3994662, “In vivo instability of platensimycin and platencin: Synthesis and biological evaluation of urea- and carbamate-platensimycin” (Bioorg Med Chem, 2017):
≈ marks a conversion by molar mass, not a printed value.

What was measured:
[1] = Elimination half life in C57Bl/6 mouse at 3 mg/kg, iv administered as single dose by LC-MS/MS analysis; assay type: ADME, organism-based; conditions: in vivo, read-out: beta t1/2 (converted)
[2] = Elimination half life in C57Bl/6 mouse at 10 mg/kg, po administered as single dose via gavage by LC-MS/MS analysis; assay type: ADME, organism-based; conditions: in vivo, read-out: beta t1/2 (converted)
[3] = Cmax in C57Bl/6 mouse at 3 mg/kg, iv administered as single dose by LC-MS/MS analysis; assay type: ADME, organism-based; set-up: dose 3 mg/kg, route intravenous; conditions: in vivo
[4] = Cmax in C57Bl/6 mouse at 10 mg/kg, po administered as single dose via gavage by LC-MS/MS analysis; assay type: ADME, organism-based; set-up: dose 10 mg/kg, route oral; conditions: in vivo
Mus musculus [5] = experiment: AUC (0 to 8 hrs) in C57Bl/6 mouse at 3 mg/kg, iv administered as single dose by LC-MS/MS analysis; assay type: ADME, organism-based; set-up: dose 3 mg/kg, time < 8 hr, route intravenous; conditions: in vivo
Mus musculus [6] = experiment: AUC (0 to 8 hrs) in C57Bl/6 mouse at 10 mg/kg, po administered as single dose via gavage by LC-MS/MS analysis; assay type: ADME, organism-based; set-up: time < 8 hr, dose 10 mg/kg, route oral; conditions: in vivo
[7] = Observed clearance in C57Bl/6 mouse at 3 mg/kg, iv administered as single dose by LC-MS/MS analysis; assay type: ADME, organism-based; conditions: in vivo
[8] = Volume of distribution in C57Bl/6 mouse at 3 mg/kg, iv administered as single dose by LC-MS/MS analysis; assay type: ADME, organism-based; conditions: in vivo
[9] = Oral bioavailability in C57Bl/6 mouse at 10 mg/kg administered as single dose via gavage by LC-MS/MS analysis; assay type: ADME, organism-based; conditions: in vivo
[10] = Plasma concentration in C57Bl/6 mouse at 3 mg/kg, iv administered as single dose measured after 2 hrs by LC-MS/MS analysis; assay type: ADME, organism-based
Plasma [11] = experiment: Drug uptake in C57Bl/6 mouse plasma at 10 mg/kg, iv administered as single dose measured after 60 mins by LC-MS/MS analysis; assay type: ADME, organism-based; conditions: in vivo, 1 h
Liver [12] = experiment: Drug uptake in C57Bl/6 mouse liver at 10 mg/kg, iv administered as single dose measured after 60 mins by LC-MS/MS analysis; assay type: ADME, organism-based; conditions: in vivo, 1 h
Lung [13] = experiment: Drug uptake in C57Bl/6 mouse lung at 10 mg/kg, iv administered as single dose measured after 60 mins by LC-MS/MS analysis; assay type: ADME, organism-based; conditions: in vivo, 1 h
Kidney [14] = experiment: Drug uptake in C57Bl/6 mouse kidney at 10 mg/kg, iv administered as single dose measured after 60 mins by LC-MS/MS analysis; assay type: ADME, organism-based; conditions: in vivo, 1 h
[15] = Drug uptake in C57Bl/6 mouse muscle at 10 mg/kg, iv administered as single dose measured after 60 mins by LC-MS/MS analysis; assay type: ADME, organism-based, Muscle tissue; conditions: in vivo, 1 h
[16] = Drug uptake in C57Bl/6 mouse adipose tissue at 10 mg/kg, iv administered as single dose measured after 60 mins by LC-MS/MS analysis; assay type: ADME, organism-based; conditions: in vivo, 1 h
[17] = Ratio of drug level in C57Bl/6 mouse liver to plasma at 10 mg/kg, iv administered as single dose measured after 60 mins by LC-MS/MS analysis; assay type: ADME, organism-based
[18] = Ratio of drug level in C57Bl/6 mouse lung to plasma at 10 mg/kg, iv administered as single dose measured after 60 mins by LC-MS/MS analysis; assay type: ADME, organism-based
[19] = Ratio of drug level in C57Bl/6 mouse kidney to plasma at 10 mg/kg, iv administered as single dose measured after 60 mins by LC-MS/MS analysis; assay type: ADME, organism-based
[20] = Ratio of drug level in C57Bl/6 mouse muscle to plasma at 10 mg/kg, iv administered as single dose measured after 60 mins by LC-MS/MS analysis; assay type: ADME, organism-based, Muscle tissue/plasma
[21] = Ratio of drug level in C57Bl/6 mouse adipose tissue to plasma at 10 mg/kg, iv administered as single dose measured after 60 mins by LC-MS/MS analysis; assay type: ADME, organism-based
Brain [22] = experiment: Drug uptake in C57Bl/6 mouse brain at 10 mg/kg, iv administered as single dose measured after 60 mins by LC-MS/MS analysis; assay type: ADME, organism-based; conditions: in vivo, 1 h
[23] = Apparent permeability by PAMPA; assay type: physicochemical
[24] = Drug level in C57Bl/6 mouse urine at 10 mg/kg, iv administered as single dose measured after 60 mins by LC-MS/MS analysis; assay type: ADME, organism-based; conditions: mouse, in vivo, 1 h
[25] = Ratio of drug level in C57Bl/6 mouse urine to plasma at 10 mg/kg, iv administered as single dose measured after 60 mins by LC-MS/MS analysis; assay type: ADME, organism-based; conditions: in vivo, 1 h
[26] = Intrinsic clearance in mouse hepatic microsomes at 1 uM up to 60 mins by LC-MS/MS analysis; assay type: ADME, Microsome; conditions: liver microsomes, read-out: CLH
[27] = Drug metabolism in mouse hepatic microsomes assessed as amide hydrolysis-mediated platensic acid formation at 1 uM up to 60 mins in presence of NADPH by LC-MS/MS analysis; assay type: ADME, Liver, Microsome; conditions: 1 h
[28] = Drug metabolism in mouse hepatic microsomes assessed as amide hydrolysis-mediated platensic acid formation at 1 uM up to 60 mins in absence of NADPH by LC-MS/MS analysis; assay type: ADME, Liver, Microsome; conditions: 1 h
[29] = Drug metabolism in mouse hepatic microsomes assessed as hydroxylation at 1 uM up to 60 mins in absence of NADPH by LC-MS/MS analysis; assay type: ADME, Liver, Microsome; conditions: 1 h
[30] = Drug metabolism in mouse hepatic microsomes assessed as glucuronidation of carboxylic acid at 1 uM up to 60 mins in absence of NADPH by LC-MS/MS analysis; assay type: ADME, Liver, Microsome; conditions: 1 h
Staphylococcus aureus = experiment: Antibacterial activity against Staphylococcus aureus ATCC 25923 after 18 hrs by broth dilution method; assay type: functional; conditions: ATCC 25923, 18 h
Micrococcus luteus = experiment: Antibacterial activity against Micrococcus luteus ATCC 9431 after 18 hrs by broth dilution method; assay type: functional; conditions: ATCC 9431, 18 h
Lung [31] = experiment: In vivo stability in C57Bl/6 mouse lung assessed as compound hydrolysis at 10 mg/kg, iv administered as single dose measured after 60 mins by LC-MS/MS analysis; assay type: ADME, organism-based; conditions: 1 h
[32] = In vivo stability in C57Bl/6 mouse muscle assessed as compound hydrolysis at 10 mg/kg, iv administered as single dose measured after 60 mins by LC-MS/MS analysis; assay type: ADME, organism-based, Muscle tissue; conditions: 1 h
[33] = In vivo stability in C57Bl/6 mouse adipose tissue assessed as compound hydrolysis at 10 mg/kg, iv administered as single dose measured after 60 mins by LC-MS/MS analysis; assay type: ADME, organism-based; conditions: 1 h
Plasma [34] = experiment: In vivo stability in C57Bl/6 mouse plasma assessed as compound hydrolysis by measuring platensic acid level at 10 mg/kg, iv administered as single dose measured after 60 mins by LC-MS/MS analysis relative to platensimycin; assay type: ADME, organism-based; conditions: 1 h
Liver [35] = experiment: In vivo stability in C57Bl/6 mouse liver assessed as compound hydrolysis by measuring platensic acid level at 10 mg/kg, iv administered as single dose measured after 60 mins by LC-MS/MS analysis relative to platensimycin; assay type: ADME, organism-based; conditions: 1 h
Kidney [36] = experiment: In vivo stability in C57Bl/6 mouse kidney assessed as compound hydrolysis by measuring platensic acid level at 10 mg/kg, iv administered as single dose measured after 60 mins by LC-MS/MS analysis relative to platensimycin; assay type: ADME, organism-based; conditions: 1 h
[37] = In vivo stability in C57Bl/6 mouse urine assessed as compound hydrolysis by measuring platensic acid level at 10 mg/kg, iv administered as single dose measured after 60 mins by LC-MS/MS analysis relative to platensimycin; assay type: ADME, organism-based; conditions: 1 h
Plasma [38] = experiment: In vivo stability in C57Bl/6 mouse plasma assessed as compound hydrolysis at 10 mg/kg, iv administered as single dose measured after 60 mins by LC-MS/MS analysis; assay type: ADME, organism-based; conditions: 1 h
Liver [39] = experiment: In vivo stability in C57Bl/6 mouse liver assessed as compound hydrolysis at 10 mg/kg, iv administered as single dose measured after 60 mins by LC-MS/MS analysis; assay type: ADME, organism-based; conditions: 1 h
Kidney [40] = experiment: In vivo stability in C57Bl/6 mouse kidney assessed as compound hydrolysis at 10 mg/kg, iv administered as single dose measured after 60 mins by LC-MS/MS analysis; assay type: ADME, organism-based; conditions: 1 h
[41] = In vivo stability in C57Bl/6 mouse urine assessed as compound hydrolysis at 10 mg/kg, iv administered as single dose measured after 60 mins by LC-MS/MS analysis; assay type: ADME, organism-based; conditions: 1 h
Brain [42] = experiment: In vivo stability in C57Bl/6 mouse brain assessed as compound hydrolysis at 10 mg/kg, iv administered as single dose measured after 60 mins by LC-MS/MS analysis; assay type: ADME, organism-based; conditions: 1 h

half-life [1]: 3.5 h
half-life [2]: 3.2 h
Cmax [3]: 20000 nM
Cmax [4]: 2100 nM
AUC (Mus musculus [5]): 10 µM·h
AUC (Mus musculus [6]): 1.5 µM·h
clearance [7]: 16 mL/min/kg
Vd [8]: 0.9 L/kg
bioavailability [9]: 4.4%
concentration at 2 h [10]: 10 nM
Drug uptake (Plasma [11]): Active
Drug uptake (Liver [12]): Active
Drug uptake (Lung [13]): Active
Drug uptake (Kidney [14]): Active
Drug uptake [15]: Active
Drug uptake [16]: Active
Kp at 1 h [17]: 6.2
Kp at 1 h [18]: 0.5
Kp at 1 h [19]: 0.5
Kp at 1 h [20]: 0.1
Kp at 1 h [21]: 0.1
Drug uptake (Brain [22]): Not Active
Papp [23]: 1.3 ×10⁻⁷ cm/s
Drug uptake [24]: Active
Ratio [25]: 3790
microsomal CLint at 1 µM [26]: 13.6 µL/min/mg
Drug metabolism [27]: Metabolite_Detected
Drug metabolism [28]: Metabolite_Detected
Drug metabolism [29]: Metabolite_Detected
Drug metabolism [30]: Metabolite_Detected
MIC (Staphylococcus aureus): 0.5 µg/mL (≈ 1.13 µM)
MIC (Micrococcus luteus): 0.5 µg/mL (≈ 1.13 µM)
Stability (Lung [31]): Stable
Stability [32]: Stable
Stability [33]: Stable
fold change (FC) (Plasma [34]): 0.1
fold change (FC) (Liver [35]): 0.04
fold change (FC) (Kidney [36]): 0.2
fold change (FC) [37]: 0.0005
Stability (Plasma [38]): Unstable
Stability (Liver [39]): Unstable
Stability (Kidney [40]): Unstable
Stability [41]: Unstable
Stability (Brain [42]): Stable
SMILES: C[C@]12C[C@@]34C=CC(=O)[C@@](C)(CCC(=O)Nc5c(O)ccc(C(=O)O)c5O)[C@@H]3[C@H](C[C@@H]1C4)O2
